This is an account of results in patent publication US20110034472A1, “Novel Compounds for Treatment of Cancer and Disorders Associated With Angiogenesis Function” (UNIVERSITY OF SOUTHERN CALIFORNIA, priority 2004, published 2011).

Counter-ions that a name gives are not always drawn. Like-named read-outs stand apart in the source and are kept apart here. Where only a bound is given, the exact number is not on record here.

Data set [1] concerns MDA-MB-435 breast cancer cells. The experiment in a line: MTT cytotoxicity assay, MDA-MB-435. The note with it: MTT, 72 h, read-out: IC50. Format: cell-based, human. The method, then: The sensitivity of a panel of seven human cancer cell lines to SC144 was assessed by MTT-assay. […] The sensitivity towards SC144 was time- and dose-dependent.
(§1) Cytotoxicity was assessed by a 3-(4,5-dimethylthiazol-2-yl)-2,5-diphenyltetrazolium bromide assay as previously described (Carmichael et al. (1987) Cancer Res. 47:936-42). Briefly, cells were seeded in 96-well microtiter plates (PC3 and DU145 at 5,000 cells/well and LNCaP at 10,000 cells/well; breast and ovarian cells at 4,000 cells/well) and allowed to attach. Cells were subsequently treated with a continuous exposure to the corresponding drug for 72 hours. A 3-(4,5-dimethylthiazol-2-yl)-2,5-diphenyltetrazolium bromide solution (at a final concentration of 0.5 mg/mL) was added to each well and cells were incubated for 4 hours at 37° C. After removal of the medium, DMSO was added and the absorbance was read at 570 nm. All assays were done in triplicate. The IC50 was then determined for each drug from a plot of log(drug concentration) versus percentage of cell kill.
(§2) Cytotoxicity was assessed by a 3-(4,5-dimethylthiazol-2-yl)-2,5-diphenyltetrazolium bromide (MTT) assay as previously described.^9 Briefly, cells were seeded in 96-well microtiter plates and allowed to attach. Cells were subsequently treated with continuous exposure to the corresponding drug for 72 h. An MTT solution (at a final concentration of 0.5 mg/mL) was added to each well, and cells were incubated for 4 h at 37° C. After removal of the medium, DMSO was added and the absorbance was read at 570 nm. All assays were done in triplicate. The IC50 was then determined for each drug from a plot of log (drug concentration) versus percentage of cells killed.

For data set [2], the system named is HCT 116 p53^+/+ colon cancer cells. The experiment in a line: MTT cytotoxicity assay, HCT 116 p53+/+. Format: cell-based, human. The conditions noted are these: 72 h.
Description: (§3) Human breast cancer cells MDA-MB-435 and colon cancer HT29, p53 mutant were purchased from the American Type Cell Culture (Manassas, Va.). The HCT116 P53^+/+ and HCT116 P53^−/− cells were kindly provided by Dr. Bert Vogelstein (Johns Hopkins Medical Institutions, Baltimore, Md.). Human prostate cancer cells, LNCaP, were kindly provided by Richard Cote (University of Southern California Keck School of Medicine). Cells were maintained as monolayer cultures in RPMI 1640 media supplemented with 10% fetal bovine serum (Gemini-Bioproducts, Woodland, Calif.) and 2 mmol/L L-glutamine at 37° C. in a humidified atmosphere of 5% CO2. To remove the adherent cells from the flask for passaging and counting, cells were washed with PBS without calcium or magnesium, incubated with a small volume of 0.25% trypsin-EDTA solution (Sigma-Aldrich, St. Louis, Mo.) for 5-10 min, and washed with culture medium and centrifuged. All experiments were performed using cells at exponential growth stage. Cells were routinely checked for mycoplasma contamination using a PCR-based assay (Stratagene, Cambridge, UK).
as §2

Data set [3] relates to HCT 116 p53^−/− colon cancer cells. The experiment in a line: MTT cytotoxicity assay, HCT 116 p53-/-. Format: cell-based, human. The note with it: 72 h.
Description: as §3, §2

The subject of data set [4] is HT29 colon cancer cells. The experiment in a line: MTT cytotoxicity assay, HT 29. Format: cell-based, human. The note with it: 72 h.
Description: as §3, §2

Data set [5] has as its system CEM or HEY cells. The experiment in a line: Cytotoxicity of salicylhydrazides (Table 5). It is filed as cell-based. The conditions noted are these: Homo sapiens.
Description: Human prostate cancer cells (PC3, p53 null, AR−; DU145, p53 mutant, AR−; and LNCaP, p53 wild-type, AR+) and breast cancer cells (MCF-7, overexpressed wild-type p53, ER+; MDA-MB-468, p53 mutant, […]; and MDA-MB-435, p53 mutant, ER−) were obtained from American Type Cell Culture (Manassas, Va.). The human ovarian carcinoma cell line (HEY) naturally resistant to cisplatin (CDDP) was kindly provided by Dr. Dubeau (University of Southern California Norris Cancer Center; Buick et al. (1985) Cancer Res. 45:3668-76 and Hamaguchi et al. (1993) Cancer Res. 53:5225-32). The results with CEM cells were previously described (Neamati et al. (1998) J. Med. Chem. 41:3202-9). Cells were maintained as monolayer cultures in RPMI 1640 supplemented with 10% fetal bovine serum (Gemini-Bioproducts, Woodland, Calif.) and 2 mmol/L L-glutamine at 37° C. in a humidified atmosphere of 5% CO2. To remove the adherent cells from the flask for passaging and counting, cells were washed with PBS without calcium or magnesium, incubated with a small volume of 0.25% trypsin-EDTA solution (Sigma-Aldrich, St. Louis, Mo.) for 5 to 10 minutes, and washed with culture medium and centrifuged. All experiments were done using cells in exponential cell growth.
as §1

Data set [6] concerns MDA-MB-435 cells. In words: MTT assay, continuous drug exposure for 48 hours (Table 3). Format: cell-based, human. The conditions noted are these: for IC80: MDA-MB-435, read-out: CC80.

Turning to `COc1ccc(C(N)CC(=O)NNc2nc3ccccc3n3cccc23)cc1` (centres unmarked) [SC164, 3-Amino-3-(4-methoxy-phenyl)-propionic acid N′-pyrrolo[1,2-a]quinoxalin-4-yl-hydrazide], the IC50 in data set [1] (Homo sapiens), in data set [2] (Homo sapiens), in data set [3] (Homo sapiens) and in data set [4] (Homo sapiens) was over 20 µM each time.

For `Cc1cccc(C(=O)NNC(O)c2ccc(N3C(=O)c4ccccc4C3=O)cc2)c1` (centres unmarked) [SC29], the midpoint of inhibition in data set [5], the IC50, lay at 7 ± 2 µM.

`O=C(NNc1nc2ccccc2n2cccc12)c1ccc[nH]1` [SC141, 1H-Pyrrole-2-carboxylic acid N′-pyrrolo[1,2-a]quinoxalin-4-yl-hydrazide] yielded a melting point of 210 to 212 °C.

The molecule `O=C(NNC(=O)c1ccccc1O)c1ccccc1O` [SC20] displayed a 50% inhibitory concentration (IC50) in data set [5] of 0.1 ± 0.01 µM.

As for `NC(CC(=O)NNc1nc2ccccc2n2cccc12)c1ccc(C(F)(F)F)cc1` (centres unmarked) [SC165, 3-Amino-3-(4-trifluoromethyl-phenyl)-propionic acid N′-pyrrolo[1,2-a]quinoxalin-4-yl-hydrazide], the IC50 in data set [1] (Homo sapiens), in data set [2] (Homo sapiens), in data set [3] (Homo sapiens) and in data set [4] (Homo sapiens) was over 20 µM throughout.

In turn, `C=C/C=C(\C=C)N1N=C(C)/C(=C/NNC(=O)c2ccccc2)C1=O` [SC32] displayed an IC50 in data set [5] of 2 ± 1 µM.

In data set [5], `C=C/C=C(\C=C)N1N=C(C)/C(=C(/NNC(=O)c2ccccc2O)c2ccccc2)C1=O` [SC31] yielded a concentration for half-maximal inhibition (IC50) of 10 ± 2 µM.

In turn, `O=C(NNc1nc2ccccc2n2cccc12)c1c[nH]c2ccccc12` [SC158, 1H-Indole-3-carboxylic acid N′-pyrrolo[1,2-a]quinoxalin-4-yl-hydrazide] had a melting point of 162.5 °C. Besides, the IC50 in data set [1] (Homo sapiens) is over 20 µM. The molecule also gave an IC50 in data set [2] (Homo sapiens) of over 20 µM. The same molecule came in with a half-maximal inhibitory concentration (IC50) in data set [3] (Homo sapiens) of over 20 µM. Further, the IC50 in data set [4] (Homo sapiens) is over 20 µM.

`O=C(NNc1nc2ccccc2n2cccc12)c1cc2ccccc2[nH]1` [SC155, 1H-indole-2-carboxylic acid N′-pyrrolo[1,2-a]quinoxalin-4-yl-hydrazide] registered a melting point of 186 °C. Besides, in data set [1] (Homo sapiens), the IC50 was over 20 µM. This molecule also had an IC50 in data set [2] (Homo sapiens) of over 20 µM. Further, in data set [3] (Homo sapiens), the half-inhibitory concentration (IC50) was over 20 µM. The half-inhibitory concentration (IC50) in data set [4] (Homo sapiens) was over 20 µM.

For the molecule `O=C(NNc1nc2cc(F)ccc2n2cccc12)c1ccccn1` (as salt: hydrochloride) [SC160′, N′-(7-Fluoropyrrolo[1,2-a]quinoxalin-4-yl)pyridine-2-carbohydrazide hydrochloride], the melting point was > 280 °C (dec.).

As to `CC1=NN(C(=O)c2ccccc2O)C(=O)/C1=C/c1ccc(O)cc1` [SC27], in data set [5], the IC50 was 0.06 µM.

On to `COc1ccc(NC(=O)NNC(=O)c2c(O)ccc3ccccc23)cc1` [SC36], for which the concentration for half-maximal inhibition (IC50) in data set [5] is 20 µM.

Consider `N#Cc1ccc(C(N)CC(=O)NNc2nc3ccccc3n3cccc23)cc1` (centres unmarked) [SC163, 3-Amino-3-(4-cyano-phenyl)-propionic acid N′-pyrrolo[1,2-a]quinoxalin-4-yl-hydrazide], for which the IC50 in data set [1] (Homo sapiens), in data set [2] (Homo sapiens), in data set [3] (Homo sapiens) and in data set [4] (Homo sapiens) was over 20 µM throughout.

As to `N.N.[Cl][Pt][Cl]` [Cisplatin], in data set [6], the 50% cytotoxic concentration (CC50) worked out at 39 ± 1.41 µM and the CC80 amounted to 71 ± 1.4 µM.

`O=C(COc1ccccc1Cl)NNC(=O)c1cc2ccccc2cc1O` [SC34] came in with a concentration for half-maximal inhibition (IC50) in data set [5] of 20 µM.

With `O=C(CN1C(=O)C/C(=C\c2ccc(Cl)cc2)C1O)NNC(=O)C1=CCCC=C1O` (centres unmarked) [SC28], it took 10 ± 2 µM to reach half-maximal inhibition in data set [5] (IC50).

Consider `O=C(NNc1nc2cc(F)ccc2n2cccc12)c1cnc2ccccc2n1` (as salt: hydrochloride) [SC166′, N′-(7-Fluoropyrrolo[1,2-a]quinoxalin-4-yl)quinoxaline-2-carbohydrazide hydrochloride], for which the melting point was 280 °C (dec.).

Consider `O=C(NNc1nc2ccccc2n2cccc12)c1ccccc1F` [SC166, 2-Fluoro-benzoic acid N′-pyrrolo[1,2-a]quinoxalin-4-yl-hydrazide], for which the IC50 in data set [1] (Homo sapiens) stood at 15 ± 1 µM; in data set [2] (Homo sapiens), 8 ± 1 µM; in data set [3] (Homo sapiens) it was 11 ± 1 µM; in data set [4] (Homo sapiens) it was 13 ± 2 µM.

`O=C(NNc1nc2ccccc2n2cccc12)c1ccc2[nH]ccc2c1` [SC156, 1H-Indole-5-carboxylic acid N′-pyrrolo[1,2-a]quinoxalin-4-yl-hydrazide] showed a melting point of 160 °C. In addition, in data set [1] (Homo sapiens), the IC50 was over 20 µM. Further, the IC50 in data set [2] (Homo sapiens) is over 20 µM. The molecule also displayed an IC50 in data set [3] (Homo sapiens) of over 20 µM. Further, the 50% inhibitory concentration (IC50) in data set [4] (Homo sapiens) is over 20 µM.

Turning to `CC(=O)O[C@H]1C(=O)[C@@]2(C)[C@H]([C@H](OC(=O)c3ccccc3)[C@]3(O)C[C@H](OC(=O)[C@H](O)[C@@H](NC(=O)c4ccccc4)c4ccccc4)C(C)=C1C3(C)C)[C@]1(OC(C)=O)CO[C@@H]1C[C@@H]2O` [Taxol], in data set [6] (Homo sapiens, MDA-MB-435), it took 0.04 ± 0.003 µM to reach half-maximal cytotoxicity (CC50). Also, the IC80 in data set [6] (Homo sapiens) was 0.07 ± 0.01 µM.

`COc1ccc2oc(=O)c(C(=O)NNC(=O)c3cccc(C)c3)cc2c1` [SC35] yielded an IC50 in data set [5] of 12 ± 2 µM.

In data set [6] (Homo sapiens, MDA-MB-435), `COc1cc([C@@H]2c3cc4c(cc3[C@@H](O[C@@H]3O[C@@H]5CO[C@@H](C)O[C@H]5[C@H](O)[C@H]3O)[C@H]3COC(=O)[C@H]23)OCO4)cc(OC)c1O` [Etoposide] displayed a CC50 of 52.5 ± 3.5 µM. Besides, the IC80 in data set [6] (Homo sapiens) was 300 ± 106 µM.

In data set [5], `O=C(/C=C/NNC(=O)c1ccccc1O)c1ccccc1` [SC33] yielded an IC50 of 20 µM.

The molecule `NCCC(=O)NNc1nc2ccccc2n2cccc12` [SC154, 3-Amino-propionic acid N′-pyrrolo[1,2-a]quinoxalin-4-yl-hydrazide] registered a melting point of 164.5 °C. Moreover, the half-inhibitory concentration (IC50) in data set [1] (Homo sapiens) is over 20 µM. Further, in data set [2] (Homo sapiens), the half-inhibitory concentration (IC50) was over 20 µM. Moreover, in data set [3] (Homo sapiens), the IC50 is over 20 µM. In data set [4] (Homo sapiens), the concentration for half-maximal inhibition (IC50) is over 20 µM.

Take `O=C(NNc1nc2cccc(F)c2n2cccc12)c1cnccn1` (as salt: hydrochloride) [SC161′, N′-(9-Fluoropyrrolo[1,2-a]quinoxalin-4-yl)pyrazine-2-carbohydrazide hydrochloride]: the melting point is 248 °C (dec.).

`C=C1C/C(=C\c2ccc(Cl)cc2)C(=O)N1CC(=O)NNC(=O)c1ccccc1O` [SC37] gave a concentration for half-maximal inhibition (IC50) in data set [5] of 15 ± 3 µM.

Consider `COc1ccccc1C(=O)NNc1nc2ccccc2n2cccc12` [SC159, 2-Methoxy-N′-(H-pyrrolo[1,2-a]quinoxalin-4-yl)benzohydrazide], for which the IC50 in data set [1], in data set [2], in data set [3] and in data set [4] was over 20 µM each time.

`CC1=NN(C(=O)c2ccccc2O)C(=O)/C1=C/c1ccccc1O` [SC26] registered an IC50 in data set [5] of 0.06 µM.

On to `O=C(CNC(=O)c1ccccc1O)c1ccc(N2C(=O)c3ccccc3C2=O)cc1` [SC30], for which the IC50 in data set [5] was determined as 6.5 ± 1 µM.

As to `Cc1cc2nc(NNC(=O)c3cnccn3)c3cccn3c2cc1C` [SC143, Pyrazine-2-carboxylic acid N′-(7,8-dimethyl-pyrrolo[1,2-a]quinoxalin-4-yl)-hydrazide], the melting point came out at 116 °C.

Molecule `COc1ccc(/C=C2/C(=O)N(C(=O)c3ccccc3O)N=C2C)cc1OC` [SC25] gave an IC50 in data set [5] of 0.15 µM.
